Test results as given in patent US20250065017A1, “Fractionating Extracellular Matrix to Modulate Bioactivity and the Host Response” (University of Pittsburgh - Of the Commonwealth System of …, priority 2014, published 2025).

How the values were obtained:
[1] = tested on: Sprague Dawley rats; assay: Rat skeletal muscle injury model: macrophage phenotype immunolabeling; type: in vivo
Procedure: An established rodent skeletal muscle injury model was used to evaluate the effect of the COX1/2 inhibitor, Aspirin, on the ECM scaffold mediated constructive remodeling response. Briefly, three days prior to the surgical procedure, animals were randomly assigned to either the Aspirin treated (3 mg/mL Aspirin in drinking water) or control (vehicle) group. Bilateral 1.5 cm×1.5 cm partial thickness defects were created in the abdominal musculature. A size-matched pre-cast UBM hydrogel and an overlying 2×2 cm single layer sheet of UBM was then placed in the muscle defect area. The remodeling response was evaluated following 3, 7, 14, and 35 days by quantitative histomorphologic metrics (Wolf M T, Carruthers […], Crapo P M, Huber A, Burnsed O A, Londono R, Johnson […] and others. Polypropylene surgical mesh coated with extracellular matrix mitigates the host foreign body response. J Biomed Mater Res A 2013 and Wolf […], Brennan-Pierce E P, Johnson S A, Carruthers […] hydrogel derived from decellularized dermal extracellular matrix. Biomaterials 2012;33(29):7028-38), including characterization of macrophage phenotype and neo tissue deposition. Thirty-two female Sprague Dawley rats (350-400 g at implantation) were purchased from Harlan Laboratories. Rats were housed on a 12 hour light-dark cycle and fed standard laboratory chow and water ad libitum. Animals were randomly assigned to either the Aspirin treated or control (vehicle) group. Three days prior to surgery, animals in the Aspirin group had their drinking water supplemented with 3 mg/mL Aspirin which was continued throughout the experimental time course. […] Salicylates in whole blood were determined using the Salicylates Detection Kit from Neogen according to the manufacturer's instructions. […] CD206 and CD86: Cellular expression of markers of macrophage polarization (CD206 and CD86) were determined by immunolabeling using previously described methods ([…], Londono […], Carruthers […]. Preparation and characterization of a biologic scaffold from esophageal mucosa. Biomaterials 2013;34(28):6729-37). […]

[2] = tested on: brain derived microglia; assay: PGE2 secretion in primary microglia; type: cell-based, rat; settings: UBM hydrogel 0.5 mg/mL 48 hours; inhibitor pre-treatment 1 hour
Procedure: Primary microglia from rats were obtained from postnatal day 3 rat pup brains as previously described ([…], Xiao X, Hart RP, Schwartz M. Protective autoimmunity: interferon-gamma enables microglia to remove glutamate without evoking inflammatory mediators. J Neurochem 2005;92(5):997-1009). Whole brains from postnatal day 3 Sprague Dawley rat pups (Charles River) were harvested and minced after removal of the brain stem, olfactory bulbs, and meninges. Tissue was digested for 15 min in 0.25% trypsin/EDTA at 37° C. […] The suspension was centrifuged, diluted in culture media (DMEM/F12, 10% FBS, 2 mM L-glutamine, 1% penicillin/streptomycin), and grown to confluence at 37° C./5% CO2. Culture media was replaced every 2-3 days. At day 11-12 in vitro, enriched microglia were obtained by mechanical agitation (orbital shaker, 150 rpm, 37 C) for 2 hours. The media was collected after the shake-off step and centrifuged (1400 rpm for 5 minutes). The cell pellet was resuspended in culture media (RPMI 1640, 10% FBS, 1 mM L-glutamine, 1 mM sodium pyruvate, 50 μM beta-mercaptoethanol, 1% penicillin and streptomycin) and cells were plated at a density of 500,000/mL. […] Secreted factor concentrations in the culture supernatants were determined using commercially available ELISA kits (PGE2, PGF2α, ENZO Life Sciences) and IL-1RA (R&D Systems)) according to the manufacturer's instructions.

[3] = vs non-Aspirin treated animals throughout the time course

## CC(=O)Oc1ccccc1C(=O)O [Aspirin]
[1]; main effect for treatment, UBM implant
  M2:M1 ratio (CD68+CD206+ to CD68+CD86+ cells): reduction in the M2:M1 ratio
[1]; [3]
  M1 (CD86+) macrophages: increase in M1 (CD86+) macrophages
  M2 (CD206+) macrophages: reduction in M2 (CD206+)
[2]
  PGE2 production: reduced PGE2 production to baseline levels
